{"source": "patent US5216183A", "about": "“Cyclopentanone/cyclopentenone derivative” (Teijin Limited, priority 1988, dated 1993)", "key": {"[1]": {"system": "human osteoblast (KK-3, 18PDL)", "test": "Determination (3) of bone formation activity (KK-3, 14 days)", "assay_type": "cell-based", "details": "Table 40; for ALP: control 0.72 ± 0.17; for P: control 51 ± 5; for Ca: control 90 ± 8", "description": "Human osteoblast (KK-3, 18PDL) was cultured in α-MEM containing 10% fetal bovine serum, and when a stable growth was attained, a predetermined concentration of the compound was added in the presence of 2 mM α-glycerophosphoric acid salt, followed by treatment for 14 days. The cell layer was washed with a physioligical salt solution and the alkali phosphatase activity then measured by absorption at OD415. Next, calcium and phosphorus were extracted with a 2N hydrochloric acid solution and quantitated."}, "[2]": {"system": "human osteoblasts (KK-3, 18PDL)", "test": "Measurement of bone formation activity (KK-3, 14 days)", "assay_type": "cell-based", "description": "Human osteoblasts (KK-3, 18PDL) were cultured in an α-MEM containing 10% fetal calf serum. After the growth became stationary, the compound was added in a given concentration in the presence of 2 mM α-glycerophosphate and treated for 14 days. The cell phase was washed with physiological saline, and the alkaline phosphatase activity (ALP) was measured through the absorption of OD415. Then, calcium (Ca) and phosphorus (P) were extracted with a 2N hydrochloric acid and quantitatively determined."}, "[3]": {"details": "Table 35, 10^-5 M, control 1.23 ± 0.02"}, "[4]": {"details": "Table 35, 10^-5 M, control 3.00 ± 1.00"}, "[5]": {"details": "Table 35, 10^-6 M, control 1.23 ± 0.02"}, "[6]": {"details": "Table 35, 10^-6 M, control 3.00 ± 1.00"}, "[7]": {"details": "Table 35, 10^-6 M, control 5.67 ± 0.58"}, "[8]": {"details": "Table 26, 10^-6 M, control 0.27 ± 0.04"}, "[9]": {"details": "Table 26, 10^-6 M, control 30.68 ± 3.33"}, "[10]": {"details": "Table 26, 10^-6 M, control 45.61 ± 6.19"}, "[11]": {"details": "Table 26, 10^-7 M, control 0.27 ± 0.04"}, "[12]": {"details": "Table 26, 10^-7 M, control 45.61 ± 6.19"}}}
{"smiles": "CSC1=CC(=CCCCOc2ccccc2)C(=C/C=C\\C(O)CCCO)C1=O", "note": "(stereo not drawn) [2-methylthio-5-[( -- Z)-4,7-dihydroxy-2-heptenylidene]-4-(4-phenoxybutylidene)-2-cyclopentenone]", "values": [{"measurement": "ALP", "setting": "[1]; 10^-6 M", "result": "0.94 ± 0.11", "unit": "OD 415 nm/dish"}, {"measurement": "P", "setting": "[1]; 10^-6 M", "result": "60 ± 0.5", "unit": "μg/dish"}, {"measurement": "Ca", "setting": "[1]; 10^-6 M", "result": 109, "unit": "μg/dish"}, {"measurement": "ALP", "setting": "[1]; 10^-7 M", "result": "0.94 ± 0.07", "unit": "OD 415 nm/dish"}, {"measurement": "P", "setting": "[1]; 10^-7 M", "result": "48 ± 4", "unit": "μg/dish"}, {"measurement": "Ca", "setting": "[1]; 10^-7 M", "result": "85 ± 10", "unit": "μg/dish"}]}
{"smiles": "C[S+]([O-])C1=CC(O)(CCCCOc2ccccc2)/C(=C/C=C/C(O)CCCO)C1=O", "note": "(stereo not drawn) [drawing 1109, 2-methylsulfinyl-5-[( -- Z)-4,7-dihydroxy-2-heptenylidene]-4-(4-phenoxybutylidene)-4-hydroxy-2-cyclopentenone]", "values": [{"measurement": "ALP", "setting": "[1]; 10^-6 M", "result": "0.92 ± 0.9", "unit": "OD 415 nm/dish"}, {"measurement": "P", "setting": "[1]; 10^-6 M", "result": "61 ± 4", "unit": "μg/dish"}, {"measurement": "Ca", "setting": "[1]; 10^-6 M", "result": 109, "unit": "μg/dish"}, {"measurement": "ALP", "setting": "[1]; 10^-7 M", "result": "0.81 ± 0.11", "unit": "OD 415 nm/dish"}, {"measurement": "P", "setting": "[1]; 10^-7 M", "result": "52 ± 1", "unit": "μg/dish"}, {"measurement": "Ca", "setting": "[1]; 10^-7 M", "result": "89 ± 1", "unit": "μg/dish"}]}
{"smiles": "CSC1=CC(O)(CCCCOc2ccccc2)C(CC=CC(O)CCCO)C1=O", "note": "(stereo not drawn)", "values": [{"measurement": "ALP", "setting": "[2]; Table 32, 10^-5 M, control 0.80 ± 0.01", "result": 0.56, "unit": "OD415 /dish"}, {"measurement": "Ca", "setting": "[2]; Table 32, 10^-5 M, control 23.00 ± 1.00", "result": "30.67 ± 2.31", "unit": "μg/dish"}, {"measurement": "ALP", "setting": "[2]; Table 32, 10^-6 M, control 0.80 ± 0.01", "result": "0.84 ± 0.03", "unit": "OD415 /dish"}, {"measurement": "P", "setting": "[2]; Table 32, 10^-6 M, control 15.67 ± 0.58", "result": "9.33 ± 1.15", "unit": "μg/dish"}, {"measurement": "Ca", "setting": "[2]; Table 32, 10^-6 M, control 23.00 ± 1.00", "result": "10.67 ± 1.53", "unit": "μg/dish"}]}
{"smiles": "CSC1=CC(O)(CCCCOc2ccccc2)C(C(/C=C/C(O)CCCO)OC(=O)OC(C)C)C1=O", "note": "(stereo not drawn)", "values": [{"measurement": "ALP", "setting": "[2]; [3]", "result": 0.18, "unit": "OD415 /dish"}, {"measurement": "Ca", "setting": "[2]; [4]", "result": 109.67, "unit": "μg/dish"}, {"measurement": "ALP", "setting": "[2]; [5]", "result": "1.22 ± 0.06", "unit": "OD415 /dish"}, {"measurement": "Ca", "setting": "[2]; [6]", "result": "25.00 ± 1.73", "unit": "μg/dish"}, {"measurement": "P", "setting": "[2]; [7]", "result": "19.67 ± 1.15", "unit": "μg/dish"}]}
{"smiles": "Cn1ccnc1SC1=CC(O)(CCCCOc2ccccc2)C(=C/C=C/CO)C1=O", "note": "(stereo not drawn)", "values": [{"measurement": "ALP", "setting": "[2]; Table 36, 10^-6 M, control 1.17 ± 0.03", "result": 1.18, "unit": "OD415 /dish"}, {"measurement": "Ca", "setting": "[2]; Table 36, 10^-6 M, control 2.33 ± 1.15", "result": 37.33, "unit": "μg/dish"}, {"measurement": "ALP", "setting": "[2]; Table 36, 10^-7 M, control 1.17 ± 0.03", "result": "1.20 ± 0.03", "unit": "OD415 /dish"}, {"measurement": "Ca", "setting": "[2]; Table 36, 10^-7 M, control 2.33 ± 1.15", "result": "2.33 ± 0.58", "unit": "μg/dish"}, {"measurement": "P", "setting": "[2]; Table 36, 10^-7 M, control 5.00 ± 0.00", "result": "4.33 ± 0.58", "unit": "μg/dish"}]}
{"smiles": "COC(=O)CCCC#CCC1C(=O)C(SC)=CC1(O)CCCCOc1ccccc1", "note": "(stereo not drawn)", "values": [{"measurement": "ALP", "setting": "[2]; Table 33, 10^-5 M, control 0.80 ± 0.02", "result": "0.98 ± 0.08", "unit": "OD415 /dish"}, {"measurement": "P", "setting": "[2]; Table 33, 10^-5 M, control 15.67 ± 1.53", "result": "35.33 ± 0.58", "unit": "μg/dish"}, {"measurement": "Ca", "setting": "[2]; Table 33, 10^-5 M, control 22.67 ± 3.06", "result": "58.67 ± 1.53", "unit": "μg/dish"}, {"measurement": "ALP", "setting": "[2]; Table 33, 10^-6 M, control 0.80 ± 0.02", "result": 0.90, "unit": "OD415 /dish"}, {"measurement": "Ca", "setting": "[2]; Table 33, 10^-6 M, control 22.67 ± 3.06", "result": "24.33 ± 1.53", "unit": "μg/dish"}]}
{"smiles": "CC(C)OC(=O)OC(/C=C/C(O)CCCO)C1C(=O)C(Sc2nccn2C)=CC1(O)CCCCOc1ccccc1", "note": "(stereo not drawn)", "values": [{"measurement": "ALP", "setting": "[2]; [3]", "result": 0.165, "unit": "OD415 /dish"}, {"measurement": "Ca", "setting": "[2]; [4]", "result": 136.67, "unit": "μg/dish"}, {"measurement": "ALP", "setting": "[2]; [5]", "result": "1.24 ± 0.03", "unit": "OD415 /dish"}, {"measurement": "Ca", "setting": "[2]; [6]", "result": "54.67 ± 2.08", "unit": "μg/dish"}, {"measurement": "P", "setting": "[2]; [7]", "result": "35.00 ± 2.00", "unit": "μg/dish"}]}
{"smiles": "COC(=O)CCCCCC=C1C(=O)C(Sc2nccn2C)=CC1(O)CCCCOc1ccccc1", "note": "(stereo not drawn)", "values": [{"measurement": "ALP", "setting": "[2]; Table 30, 10^-6 M, control 0.60 ± 0.02", "result": 0.60, "unit": "OD415 /dish"}, {"measurement": "Ca", "setting": "[2]; Table 30, 10^-6 M, control 3.00 ± 1.73", "result": 43.67, "unit": "μg/dish"}, {"measurement": "ALP", "setting": "[2]; Table 30, 10^-7 M, control 0.60 ± 0.02", "result": "0.63 ± 0.02", "unit": "OD415 /dish"}, {"measurement": "Ca", "setting": "[2]; Table 30, 10^-7 M, control 3.00 ± 1.73", "result": "3.67 ± 1.15", "unit": "μg/dish"}, {"measurement": "P", "setting": "[2]; Table 30, 10^-7 M, control 5.33 ± 1.15", "result": "6.33 ± 0.58", "unit": "μg/dish"}]}
{"smiles": "CCCCC1=C(Sc2nccn2C)C(=O)C(=CC=CC(O)CCCO)C1(O)CCCCOc1ccccc1", "note": "(stereo not drawn) [drawing 1079]", "values": [{"measurement": "ALP", "setting": "[2]; Table 31, 10^-7 M, control 0.18 ± 0.06", "result": "0.12 ± 0.01", "unit": "OD415 /dish"}, {"measurement": "Ca", "setting": "[2]; Table 31, 10^-7 M, control 1.88 ± 0.31", "result": "4.85 ± 0.84", "unit": "μg/dish"}, {"measurement": "P", "setting": "[2]; Table 31, 10^-7 M, control 4.73 ± 0.37", "result": "6.68 ± 0.34", "unit": "μg/dish"}, {"measurement": "ALP", "setting": "[2]; Table 31, 10^-8 M, control 0.18 ± 0.06", "result": 0.17, "unit": "OD415 /dish"}, {"measurement": "Ca", "setting": "[2]; Table 31, 10^-8 M, control 1.88 ± 0.31", "result": 2.46, "unit": "μg/dish"}]}
{"smiles": "O=C1C(=CCCC2CCCCC2)CC=C1Sc1ccccc1", "values": [{"measurement": "ALP", "setting": "[2]; Table 34, 10^-7 M, control 0.35 ± 0.02", "result": "0.36 ± 0.04", "unit": "OD415 /dish"}, {"measurement": "P", "setting": "[2]; Table 34, 10^-7 M, control 12.41 ± 1.50", "result": "12.33 ± 2.80", "unit": "μg/dish"}, {"measurement": "Ca", "setting": "[2]; Table 34, 10^-7 M, control 17.81 ± 0.50", "result": "23.94 ± 5.80", "unit": "μg/dish"}, {"measurement": "ALP", "setting": "[2]; Table 34, 10^-8 M, control 0.35 ± 0.02", "result": 0.30, "unit": "OD415 /dish"}, {"measurement": "P", "setting": "[2]; Table 34, 10^-8 M, control 12.41 ± 1.50", "result": "8.98 ± 1.89", "unit": "μg/dish"}, {"measurement": "Ca", "setting": "[2]; Table 34, 10^-8 M, control 17.81 ± 0.50", "result": "18.13 ± 2.6", "unit": "μg/dish"}]}
{"smiles": "Cn1ccnc1SC1=CC(O)(CCCCOc2ccccc2)C(=CC=CC(O)CCCO)C1=O", "note": "(stereo not drawn) [drawing 1069]", "values": [{"measurement": "ALP", "setting": "[2]; [8]", "result": "0.48 ± 0.04", "unit": "OD413 /dish"}, {"measurement": "P", "setting": "[2]; [9]", "result": "46.43 ± 1.41", "unit": "μg/dish"}, {"measurement": "Ca", "setting": "[2]; [10]", "result": "79.83 ± 0.58", "unit": "μg/dish"}, {"measurement": "ALP", "setting": "[2]; [11]", "result": 0.33, "unit": "OD413 /dish"}, {"measurement": "Ca", "setting": "[2]; [12]", "result": 61.95, "unit": "μg/dish"}]}
{"smiles": "CCOc1ccc2nc(SC3=CC(O)(CCCCOc4ccccc4)C(=CC=CC(O)CCCO)C3=O)sc2c1", "note": "(stereo not drawn) [drawing 1068]", "values": [{"measurement": "ALP", "setting": "[2]; [8]", "result": "0.10 ± 0.01", "unit": "OD413 /dish"}, {"measurement": "P", "setting": "[2]; [9]", "result": "41.45 ± 7.21", "unit": "μg/dish"}, {"measurement": "Ca", "setting": "[2]; [10]", "result": "81.88 ± 8.47", "unit": "μg/dish"}, {"measurement": "ALP", "setting": "[2]; [11]", "result": "0.34 ± 0.06", "unit": "OD413 /dish"}, {"measurement": "Ca", "setting": "[2]; [12]", "result": 61.19, "unit": "μg/dish"}]}
